Assay results: patent US6878514B1, “Methods for identifying agents that inhibit serum aging factors and uses and compositions thereof” (Purdue Research Foundation, priority 1999, dated 2005)
Like-named read-outs stand apart in the source and are kept apart here.

Experiments:
[1] = tested on: AR-NOX in sera; assay: Cytochrome c reduction by sera and inhibition by SOD or ubiquinone (Q10); assay type: biochemical, human
Description: (§1) The generation of superoxide radical was determined by assaying the rate of superoxide dismutase (SOD)-inhibitable cytochrome c reduction (Mayo and Curnette, 1990, Meth Enzymol. 186:567-575 and Butler et al., 1982, J. Biol. Chem. 257:10747-10750). The cytochrome c was from horse heart mitochondria (type VI, Sigma) and was dissolved in PBSG buffer (see below) to make a solution with a concentration of 1 mg/ml. Air-saturated reaction mixtures of […] cytochrome c stock solution and […] of a cell suspension (suspended in PBSG buffer) to give a final concentration of ˜5×10^6 cells/ml were added to 2 ml of PBSG buffer (138 mM NaCl, 2.7 mM KCl, 8.1 mM Na2HHPO4, pH 7.4 supplemented with 0.9 mM CaCl2, and 7.5 mM glucose and contained in plastic cuvettes. The formation of reduced cytochrome c was measured in the presence and absence of SOD (15 mg, Sigma) or capsaicin (2.5 mM) by comparing the absorbance of the mixture at 550 nm-540 nm. Superoxide formation was stimulated by using a handheld UV light (254 nm, 200 mw/cm^2). The extent of cytochrome c reduction was monitored spectrophotometrically at 550 nm every ten sec with gentle mixing between readings. Data were analyzed from the slope of the change in a 550 nm-540 nm before and after UV and then again after SOD or capsaicin was added. Data were expressed as nmoles O2[…]/10^6 cells using a value of SM550nm=19.1×10^3 M^−1 cm^−1.
Cytochrome c reduction by sera was assayed as for cells except that the samples were not mixed in between readings. The Q10 was added as an ethanolic solution.
Sera were obtained from the patient population of St. Elizabeth Hospital, Lafayette, Ind. and the resident population of St. Anthony's Health Care, Lafayette, Ind. Confidentiality of medical records was assured by assigning a number to each sample.

[2] = tested on: T1, NOX (NADH oxidase / ubiquinol oxidase) from HeLa cells; assay: NOX-catalyzed oxidation of ubiquinol (preparation solubilized from HeLa cells); assay type: biochemical, human; conditions: read-out: Km for quinol; substrate of NOX-catalyzed oxidation; heading: Km for quinol
T1 construct: rows headed: Km for quinol; other: substrate of NOX-catalyzed oxidation; Response of NOX-catalyzed oxidation of ubiquinol to agent; other: HeLa NOX preparation; Km for reduced Q10H2; other: NOX partially purified from surface of HeLa cells
Description: (§2) FIG. 1. Oxidation of reduced ubiquinol at 37° C. by an enzymatic preparation with NADH oxidase activity solubilized from HeLa cells by low pH treatmnent, followed by heat and proteinase K. The disappearance of reduced ubiquinol was determined from the increase in absorbance at 410 nm as a function of time in the presence of 1 mg of the HeLa protein. The concentration of quinol was 50 mM, pH 7.
(§3) Ubiquinol oxidation was estimated based on increase in absorbance at 410 nm for ubiquinone (FIG. 1).

[3] = tested on: T1, NOX (NADH oxidase / ubiquinol oxidase) from HeLa cells; conditions: read-out: Km for reduced Q10H2; NOX partially purified from surface of HeLa cells; heading: Km for reduced Q10H2; cited from earlier work
[4] = target: T2, NOX (NADH oxidase / ubiquinol oxidase) from HeLa cells (Homo sapiens, UniProt Q16206); assay: NOX-catalyzed oxidation of ubiquinol (preparation solubilized from HeLa cells); assay type: biochemical; conditions: HeLa NOX preparation; for EC50: read-out: EC50 inhibition of NOX-catalyzed oxidation of ubiquinol
T2 construct: other: HeLa NOX preparation; other: NOX partially purified from surface of HeLa cells
T2 sequence (Q16206 1-610): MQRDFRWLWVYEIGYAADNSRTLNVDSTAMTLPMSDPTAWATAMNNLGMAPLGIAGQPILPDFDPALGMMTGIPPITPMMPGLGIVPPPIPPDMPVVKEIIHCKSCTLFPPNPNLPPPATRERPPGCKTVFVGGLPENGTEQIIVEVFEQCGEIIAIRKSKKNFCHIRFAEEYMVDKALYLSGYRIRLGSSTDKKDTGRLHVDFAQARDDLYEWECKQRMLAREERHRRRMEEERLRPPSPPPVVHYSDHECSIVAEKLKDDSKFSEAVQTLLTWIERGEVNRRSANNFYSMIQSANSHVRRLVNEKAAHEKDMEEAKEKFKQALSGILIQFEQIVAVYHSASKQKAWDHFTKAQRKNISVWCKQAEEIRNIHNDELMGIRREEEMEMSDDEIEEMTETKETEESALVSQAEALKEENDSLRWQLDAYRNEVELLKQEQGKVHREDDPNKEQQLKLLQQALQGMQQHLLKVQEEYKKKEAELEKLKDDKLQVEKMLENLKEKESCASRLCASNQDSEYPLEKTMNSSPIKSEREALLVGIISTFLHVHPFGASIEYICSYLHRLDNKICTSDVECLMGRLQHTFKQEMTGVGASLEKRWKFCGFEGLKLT
Description: as §2, §3

[5] = target: T2, NOX (NADH oxidase / ubiquinol oxidase) from HeLa cells; conditions: NOX partially purified from surface of HeLa cells; cited from earlier work
[6] = tested on: MCF 10A; assay: UV-induced superoxide production (cytochrome c reduction) by MCF 10A cells; assay type: cell-based, human
Description: as §1

[7] = target: T3, partially-purified preparation of the oxidase from HeLa cells (Homo sapiens, UniProt Q16206); assay: UV-induced superoxide generation by partially-purified oxidase from HeLa cells; assay type: biochemical
T3 construct: endogenous in cells; host or cells: HeLa
T3 sequence (Q16206 1-610): T2 sequence (Q16206 1-610)

[8] = tested on: HeLa S; assay: UV-induced superoxide production (cytochrome c reduction) by HeLa S cells; assay type: cell-based, human
Description: as §1

[9] = tested on: BT-20; assay: UV-induced superoxide production (cytochrome c reduction) by BT-20 cells; assay type: cell-based, human
Description: as §1

COC1=C(OC)C(=O)C(C/C=C(\C)CC/C=C(\C)CC/C=C(\C)CC/C=C(\C)CC/C=C(\C)CC/C=C(\C)CC/C=C(\C)CC/C=C(\C)CC/C=C(\C)CCC=C(C)C)=C(C)C1=O [Q10]
Effect on superoxide-generating, aging-related enzymatic activity of sera ([1]; 0.1 mM coenzyme Q, sera of elderly individuals 80-94 years): substantially reduced
Inhibition of reduction of cytochrome c by sera of aged patients, on average ([1]; sera of aged patients, average): 36%
Reduction of cytochrome c by sera, + 45 mg Q10 ([1]; sera of individuals 83-95 years (n = 5)): 2.5 ± 1.4 nmoles/min/ml/sera

COc1c(O)c(C)c(C/C=C(\C)CC/C=C(\C)CC/C=C(\C)CC/C=C(\C)CC/C=C(\C)CC/C=C(\C)CC/C=C(\C)CC/C=C(\C)CC/C=C(\C)CCC=C(C)C)c(O)c1OC [quinol]
Km [2]: 33 µM
Km [3]: 30 µM

Cc1ccc(S(=O)(=O)NC(=O)Nc2ccc(Cl)cc2)cc1 [LY181984, N-(4-methylphenylsulfonyl)-N′-(4-chlorophenyl)urea]
Type of inhibition of NOX-catalyzed oxidation of ubiquinol [4]: competitive
EC50 [4]: 30 nM
Inhibition of ubiquinol oxidase activity [5]: inhibited competitively

COc1cc(CNC(=O)CCCC/C=C/C(C)C)ccc1O [capsaicin, 8-methyl-N-vanillyl-6-noneamide]
Effect on UV-induced generation of superoxide ([6]; MCF10A): unaffected
Reduction of cytochrome c as a measure of superoxide formation, After UV, + Capsaicin ([6]; MCF 10A, 10 minutes of 254 nm UV, 2.5 mM capsaicin in DMSO, corrected for DMSO blank): 7.2 nmoles/min/10^6 cells
Type of inhibition of NOX-catalyzed oxidation of ubiquinol [4]: competitive
EC50 [4]: 1 nM
Effect on UV-induced superoxide generation by partially-purified oxidase [7]: inhibited
Effect on response to UV (superoxide generation) ([8]; HeLa): inhibited
Reduction of cytochrome c as a measure of superoxide formation, After UV, + Capsaicin ([8]; HeLa S, 10 minutes of 254 nm UV, 2.5 mM capsaicin in DMSO, corrected for DMSO blank): 0.8 nmoles/min/10^6 cells
Inhibition of ubiquinol oxidase activity [5]: inhibited competitively
Effect on response to UV (superoxide generation) [9]: inhibited
Reduction of cytochrome c as a measure of superoxide formation, After UV, + Capsaicin ([9]; 10 minutes of 254 nm UV, 2.5 mM capsaicin in DMSO, corrected for DMSO blank): −3.7 nmoles/min/10^6 cells
